Results: ChEMBL document CHEMBL5226341, “Discovery of a Potent FLT3 Inhibitor (LT-850-166) with the Capacity of Overcoming a Variety of FLT3 Mutations” (J Med Chem, 2021)
Active and inactive are the calls of the source. The rule behind the calls is not given here.

Columns and labels:
HCT-116 = test: Antiproliferative activity against human HCT-116 cells assessed as reduction in cell viability measured after 72 hrs by CellTiterGlo luminescent assay; type: functional, cell-based; settings: HCT-116, 72 h
[1] = biological target: Receptor-type tyrosine-protein kinase FLT3 (Homo sapiens) (UniProt P36888); test: Inhibition of FLT3 in human MV4-11 cells assessed as inhibition of STAT5 phosphorylation at Tyr694 residue at 10 nM incubated for 4 hrs by western blot analysis; type: cell-based
Chain of Receptor-type tyrosine-protein kinase FLT3 (Homo sapiens) (P36888 whole entry): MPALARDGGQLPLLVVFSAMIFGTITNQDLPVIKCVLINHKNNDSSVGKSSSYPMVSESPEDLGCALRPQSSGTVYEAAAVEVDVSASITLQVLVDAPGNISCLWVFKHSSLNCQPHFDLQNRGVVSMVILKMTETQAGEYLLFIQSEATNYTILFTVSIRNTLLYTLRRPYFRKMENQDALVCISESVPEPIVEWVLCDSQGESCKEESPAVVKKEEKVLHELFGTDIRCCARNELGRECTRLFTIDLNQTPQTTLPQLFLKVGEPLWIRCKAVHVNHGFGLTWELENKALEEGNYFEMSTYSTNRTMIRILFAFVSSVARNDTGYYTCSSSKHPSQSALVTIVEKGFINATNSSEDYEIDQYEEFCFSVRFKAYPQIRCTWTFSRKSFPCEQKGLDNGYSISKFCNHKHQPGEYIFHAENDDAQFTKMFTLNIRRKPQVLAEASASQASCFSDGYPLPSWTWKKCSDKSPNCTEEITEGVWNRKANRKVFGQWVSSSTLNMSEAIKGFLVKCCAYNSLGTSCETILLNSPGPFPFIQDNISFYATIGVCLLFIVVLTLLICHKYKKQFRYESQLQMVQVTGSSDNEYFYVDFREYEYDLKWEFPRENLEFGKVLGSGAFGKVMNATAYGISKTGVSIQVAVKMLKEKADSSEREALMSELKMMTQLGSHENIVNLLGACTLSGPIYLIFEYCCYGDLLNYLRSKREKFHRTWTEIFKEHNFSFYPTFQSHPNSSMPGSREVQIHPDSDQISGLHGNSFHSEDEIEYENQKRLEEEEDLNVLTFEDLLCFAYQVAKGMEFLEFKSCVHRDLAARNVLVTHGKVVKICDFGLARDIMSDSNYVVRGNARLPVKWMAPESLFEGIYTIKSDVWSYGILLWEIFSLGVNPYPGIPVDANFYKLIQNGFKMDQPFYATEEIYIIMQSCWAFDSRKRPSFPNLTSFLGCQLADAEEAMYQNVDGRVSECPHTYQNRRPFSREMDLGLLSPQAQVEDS

[2] = biological target: Receptor-type tyrosine-protein kinase FLT3 (Homo sapiens) (UniProt P36888); test: Inhibition of FLT3 in human MV4-11 cells assessed as inhibition of FLT3 phosphorylation at Tyr589/591 residue incubated for 4 hrs by western blot analysis; type: cell-based; settings: dose 0.1-100 nM
MV4-11 [3] = test: Induction of apoptosis in human MV4-11 cells assessed as viable cells at 10 nM incubated for 24 hrs by AnnexinV-FITC/PI staining based flow cytometry (reference value: 92.3%); type: functional; settings: read-out: Activity
MV4-11 [4] = test: Antiproliferative activity against human MV4-11 cells assessed as inhibition of cell growth incubated for 72 hrs by CellTiterGlo luminescent assay; type: functional, cell-based; settings: MV4-11, 72 h
[5] = Induction of cell cycle arrest in mouse HCD-57 cells at 100 nM incubated for 24 hrs by PI staining based flow cytometry; type: toxicity; settings: hcd-57, 24 h, 0.1 µM
[6] = Toxicity in BALB/c mouse xenografted with human MV4-11 cells assessed as morphological changes in liver at 15 mg/kg, iv for 21 days by H and E staining based analysis; type: organism-based; settings: in vivo, 504 h, time 21 day
MV4-11 [7] = test: Antitumor activity against human MV4-11 cells xenografted in BALB/c mouse assessed as tumor growth inhibition at 15 mg/kg, iv BID for 21 days by vernier caliper analysis; type: functional; settings: MV4-11, 504 h, time 21 day, read-out: TGI
MV4-11 [8] = test: Induction of apoptosis in human MV4-11 cells assessed as late apoptotic cells at 100 nM incubated for 24 hrs by AnnexinV-FITC/PI staining based flow cytometry (reference value: 4.2%); type: functional
[9] = Toxicity in BALB/c mouse xenografted with human MV4-11 cells assessed as morphological changes in kidney at 15 mg/kg, iv for 21 days by H and E staining based analysis; type: organism-based; settings: in vivo, 504 h, time 21 day
[10] = AUC (0 to t) in Sprague-Dawley rat at 1 mg/kg, iv measured for 24 hrs by LC-MS/MS analysis; type: ADME, organism-based; design: dose 1 mg/kg, time 24 hrs, route iv; settings: in vivo
MDA-MB-231 = test: Antiproliferative activity against human MDA-MB-231 cells assessed as reduction in cell viability measured after 72 hrs by CellTiterGlo luminescent assay; type: functional, cell-based; settings: MDA-MB-231, 72 h
THP-1 = test: Antiproliferative activity against human THP-1 cells assessed as reduction in cell viability measured after 72 hrs by CellTiterGlo luminescent assay; type: functional, cell-based; settings: THP-1, 72 h
MV4-11 [11] = test: Antitumor activity against human MV4-11 cells xenografted in BALB/c mouse assessed as tumor growth inhibition at 15 mg/kg, iv QD for 21 days by vernier caliper analysis; type: functional; settings: MV4-11, 504 h, time 21 day, read-out: TGI
BaF3 [12] = test: Antiproliferative activity against mouse BaF3 cells harboring FLT3-ITD-Y842H mutant assessed as reduction in cell viability measured after 72 hrs by CellTiterGlo luminescent assay; type: functional, cell-based; settings: BaF3, 72 h
[13] = MRT (0 to t) in Sprague-Dawley rat at 1 mg/kg, iv measured for 24 hrs by LC-MS/MS analysis; type: ADME, organism-based; settings: in vivo
[14] = Antiproliferative activity against mouse HCD-57 cells assessed as reduction in cell viability measured after 72 hrs by CellTiterGlo luminescent assay; type: toxicity, cell-based; settings: hcd-57, 72 h
[15] = Toxicity in BALB/c mouse xenografted with human MV4-11 cells assessed as granulocyte count at 15 mg/kg, iv for 21 days; type: organism-based; settings: in vivo, 504 h, time 21 day
HCD-57 [16] = test: Induction of cell cycle arrest in mouse HCD-57 cells harboring FLT3-D835Y mutant at 100 nM incubated for 24 hrs by PI staining based flow cytometry; type: functional
[17] = Volume of distribution at steady state in Sprague-Dawley rat at 1 mg/kg, iv measured for 24 hrs by LC-MS/MS analysis; type: ADME, organism-based; settings: in vivo, read-out: Vdss
BaF3 [18] = test: Antiproliferative activity against mouse BaF3 cells harboring FLT3-ITD-F691L mutant assessed as reduction in cell viability incubated for 72 hrs by CellTiterGlo luminescent assay; type: functional, cell-based; settings: BaF3, 72 h
[19] = Induction of apoptosis in mouse HCD-57 cells at 100 nM incubated for 24 hrs by AnnexinV-FITC/PI staining based flow cytometry; type: toxicity, cell-based; settings: hcd-57, 24 h, 0.1 µM
[20] = Ratio of IC50 for antiproliferative activity against mouse BaF3 cells harboring FLT3-ITD-N676D mutant to IC50 for antiproliferative activity against mouse BaF3 cells harboring FLT3-ITD mutant; type: functional
HCD-57 [21] = test: Induction of apoptosis in mouse HCD-57 cells harboring FLT3-ITD mutant at 100 nM incubated for 24 hrs by AnnexinV-FITC/PI staining based flow cytometry; type: functional, cell-based
[22] = Toxicity in BALB/c mouse xenografted with human MV4-11 cells assessed as lymphocyte count at 15 mg/kg, iv for 21 days; type: organism-based; settings: in vivo, 504 h, time 21 day
[23] = biological target: Receptor-type tyrosine-protein kinase FLT3 (Homo sapiens) (UniProt P36888); test: Inhibition of FLT3 in human MV4-11 cells assessed as inhibition of FLT3 phosphorylation at Tyr589/591 residue at 10 nM incubated for 4 hrs by western blot analysis; type: cell-based
[24] = system: Receptor-type tyrosine-protein kinase FLT3 (Homo sapiens), P36888 [UNDEFINED MUTATION]; test: Inhibition of FLT3-ITD-F691L mutant (unknown origin) transformed in mouse BaF3 cells assessed as inhibition of ERK phosphorylation at Thr202/Tyr204 residue incubated for 4 hrs by western blot analysis; type: cell-based; settings: dose 0.1-100 nM
Chain of Receptor-type tyrosine-protein kinase FLT3 (Homo sapiens), P36888 [UNDEFINED MUTATION] (P36888 whole entry, looked up, stated change not applied): as the sequence (P36888 whole entry) above

MV4-11 [25] = test: Induction of apoptosis in human MV4-11 cells assessed as viable cells at 50 nM incubated for 24 hrs by AnnexinV-FITC/PI staining based flow cytometry (reference value: 92.3%); type: functional; settings: read-out: Activity
MV4-11 [26] = test: Induction of apoptosis in human MV4-11 cells assessed as viable cells at 100 nM incubated for 24 hrs by AnnexinV-FITC/PI staining based flow cytometry (reference value: 92.3%); type: functional; settings: read-out: Activity
BaF3 [27] = test: Antiproliferative activity against mouse BaF3 cells harboring FLT3-ITD mutant assessed as reduction in cell viability measured after 72 hrs by CellTiterGlo luminescent assay; type: functional, cell-based; settings: BaF3, 72 h
NB-4 = test: Antiproliferative activity against human NB-4 cells assessed as reduction in cell viability measured after 72 hrs by CellTiterGlo luminescent assay; type: functional, cell-based; settings: NB-4, 72 h
MOLM-13 = test: Antiproliferative activity against human MOLM-13 cells assessed as reduction in cell viability measured after 72 hrs by CellTiterGlo luminescent assay; type: functional, cell-based; settings: MOLM-13, 72 h
[28] = Toxicity in BALB/c mouse xenografted with human MV4-11 cells assessed as white blood cell count at 15 mg/kg, iv for 21 days; type: organism-based; settings: in vivo, 504 h, time 21 day
MV4-11 [29] = test: Induction of cell cycle arrest in human MV4-11 cells assessed as proportion of cells at G1 phase at 100 nM incubated for 24 hrs by PI staining based flow cytometry (reference value: 56%); type: functional
[30] = biological target: Receptor-type tyrosine-protein kinase FLT3 (Homo sapiens) (UniProt P36888); test: Inhibition of FLT3 in human MV4-11 cells assessed as inhibition of ERK phosphorylation at Thr202/Tyr204 residue at 10 nM incubated for 4 hrs by western blot analysis; type: cell-based

## CCN1CCN(c2ccc(C(=O)Nc3cc(-c4ccc5ncn(Cc6c(Cl)cccc6Cl)c5c4)[nH]n3)cc2)CC1
HCT-116
  IC50: > 10000 nM
[1]
  inhibition: 100%
[2]
  inhibition: Dose-Dependent Effect
MV4-11 [3]
  viability at 0.01 µM: 67.9%
MV4-11 [4]
  IC50: 2.93 nM
[5]
  Activity: Non-Toxic
[6]
  Activity: Non-Toxic
MV4-11 [7]
  inhibition in vivo at 15 mg/kg: 108%
MV4-11 [8]
  Activity: 24.5%
[9]
  Activity: Non-Toxic
[10]
  AUC(0-t) at 24 h: 391 ng·h/mL
MDA-MB-231
  IC50: 3850 nM
THP-1
  IC50: > 5000 nM
MV4-11 [11]
  inhibition in vivo at 15 mg/kg: 99.5%
BaF3 [12]
  IC50: < 1.5 nM
[13]
  MRT last at 24 h: 1.96 h
[14]
  Activity: Non-Toxic
[15]
  Activity: Non-Toxic
HCD-57 [16]
  Activity: Active
[17]
  Vd: 6.27 L/kg
BaF3 [18]
  IC50: 8.3 nM
[19]
  Activity: Non-Toxic
[20]
  Ratio IC50: 5.58
HCD-57 [21]
  Activity: Active
[22]
  Activity: Non-Toxic
[23]
  inhibition: 100%
[24]
  inhibition: Dose-Dependent Effect
MV4-11 [25]
  viability at 0.05 µM: 61.5%
MV4-11 [26]
  viability at 0.1 µM: 59.7%
BaF3 [27]
  IC50: 7.6 nM
NB-4
  IC50: > 5000 nM
MOLM-13
  IC50: 9.85 nM
[28]
  Activity: Non-Toxic
MV4-11 [29]
  Activity: 90.3%
[30]
  inhibition: 100%
